Test results taken from US20040038903A1, “Gonadotropin releasing hormone antagonists in gel-forming concentration” (priority 2001, published 2004).

What was measured:
[1] = Stability of aqueous solution: gel formation by visual examination; assay type: physicochemical; details: room temperature
Method: Gel formation was determined by visual examination.

Serum LH = assay: Efficacy of formulation in vivo: serum LH levels; details: 25 mg/ml in 5% mannitol, 80 μl/kg s.c., ovariectomised Rhesus monkeys
Method: Peptide 1 is dissolved in 5% mannitol (25 mg/ml). Three ovariectomised Rhesus monkeys are treated with this solution (80 μl/kg) by subcutaneous injection. Serum LH levels is measured for the following 101 days.

Serum Testosterone = assay: Efficacy of formulation in vivo: serum testosterone levels; details: 5 mg/ml in 5% mannitol, 100 μl/kg s.c., adult male Beagle dogs
Method: Peptide 1 is dissolved in 5% mannitol (5 mg/ml). Three adult male Beagle dogs are treated with this solution (100 μl/kg) by subcutaneous injection. Serum Testosterone levels are measured for the following 42 days. When Testosterone levels started to incline again the experiment was terminated.

Substance: Ac-DNal-DCpa-DPal-Ser-Aph(L-Hor)-DAph(CONH2)-Leu-Lys(iPr)-Pro-DAla-NH2 [Peptide 1]
- Stability (time to gel formation) ([1]; 0.25 mg/ml (calculated as free base) in water): No gel formation after 6 months
- Stability (time to gel formation) ([1]; 1.0 mg/ml (calculated as free base) in water): No gel formation after 6 months
- Stability (time to gel formation) ([1]; 5.0 mg/ml (calculated as free base) in water): Gel formation after 4 weeks
- Stability (time to gel formation) ([1]; 10.0 mg/ml (calculated as free base) in water): Gel formation after 2 weeks
- Stability (time to gel formation) ([1]; 30.0 mg/ml (calculated as free base) in water): Gel formation after 48 hours
- Stability (time to gel formation) ([1]; 40.0 mg/ml (calculated as free base) in water): Gel formation after 24 hours
- Stability (time to gel formation) ([1]; 60.0 mg/ml (calculated as free base) in water): Gel formation after 8 hours
- Stability (time to gel formation) ([1]; 80.0 mg/ml (calculated as free base) in water): Rapid gel formation within 60 minutes
- Stability (time to gel formation) ([1]; 120.0 mg/ml (calculated as free base) in water): Rapid gel formation within 30 minutes
- Serum LH, mean ± se (Serum LH; Day 1): 10.5 ± 1.5 ng/mL
- Serum LH, mean ± se (Serum LH; Day 2): 11.8 ± 2.6 ng/mL
- Serum LH, mean ± se (Serum LH; Day 7): 6.7 ± 1.2 ng/mL
- Serum LH, mean ± se (Serum LH; Day 14): 5.8 ± 0.9 ng/mL
- Serum LH, mean ± se (Serum LH; Day 21): 6.6 ± 1.0 ng/mL
- Serum LH, mean ± se (Serum LH; Day 28): 9.4 ± 1.3 ng/mL
- Serum LH, mean ± se (Serum LH; Day 35): 8.8 ± 1.0 ng/mL
- Serum LH, mean ± se (Serum LH; Day 42): 11.8 ± 2.3 ng/mL
- Serum LH, mean ± se (Serum LH; Day 72): 29.5 ± 4.3 ng/mL
- Serum LH, mean ± se (Serum LH; Day 101): 48.9 ± 8.3 ng/mL
- Serum LH, mean ± se (Serum LH; Hour 6): 16.2 ± 1.9 ng/mL
- Serum LH, mean ± se (Serum LH; Time 0): 60.1 ± 7.5 ng/mL
- Serum Testosterone, mean ± se (Serum Testosterone; Day 7): <0.2 nmol/L
- Serum Testosterone, mean ± se (Serum Testosterone; Day 14): <0.2 nmol/L
- Serum Testosterone, mean ± se (Serum Testosterone; Day 21): <0.2 nmol/L
- Serum Testosterone, mean ± se (Serum Testosterone; Day 28): <0.2 nmol/L
- Serum Testosterone, mean ± se (Serum Testosterone; Day 42): 3.3 ± 3 nmol/L
- Serum Testosterone, mean ± se (Serum Testosterone; Hour 4): <0.2 nmol/L
- Serum Testosterone, mean ± se (Serum Testosterone; Time 0): 13.8 ± 5.7 nmol/L
